From US6602487B1, “Methods and tests for producing and for inhibiting coronary artery vasospasms” (Dimera Incorporated, priority 1997, dated 2003)
“And” between values parts separate entries of the source, which are not always exact repeats. Equal entries are not always repeated.

Legend:
[1] = vaginal administration; cited from earlier work
coronary arteries = assay: Drug-induced (S+U) coronary vasospasm in ovariectomized monkeys with E2 plus P or MPA implants; format: in vivo, rhesus monkeys (Macaca mulatta)
Protocol: Twelve rhesus monkeys (Macaca mulatta), aged 8 to 16 years and with weights of 5-7 kg, were ovariectomized at least 3 months prior to beginning of the study and selected randomly for one of two treatments. After documenting the lack of cardiovascular disease or previous exposure to atherogenic diet and after a normal physical examination (including blood chemistry), monkeys received subdermal sylastic implants containing 200 mg of E2. Two weeks later, sylastic implants containing either 400 mg of P or 400 mg of MPA were additionally implanted. All steroids were purchased from Steraloids (Wilton, N.H.). Both estrogen and progestin implants, providing sustained release steroids, remained in place through the catheterization study 6 weeks after beginning the study. Venous blood sample (5 ml) were collected just prior to beginning the study at weekly intervals for measurements of serum levels of E2, P, and MPA. Target levels of 80-160 pg/ml for E2, 4000-8000 pg/ml for P, and 400-800 pg/ml for MPA were based on levels that are effective by reproductive system indices in women and monkeys. Levels were measured in blood serum at catheterization by specific radio-immunoassays.
Angiography was carried out under isoflurane (0.75-1.25%) general anesthesia with 70% O2 and 30% N2O, and body temperature supported with a heating pad. After ketamine sedation (10 mg/kg) and endotracheal tube placement, both femoral arteries were cannulated for simultaneous measurement of systemic blood pressure and coronary catheterization. Intravenous anticoagulation with 1000 units of heparin and fluid replacement with 75-150 ml of lactated Ringer's solution, and if needed 10-50 ml of dextran, to reach a minimum control diastolic blood pressure of 60 mm Hg.
Coronary arteries (left anterior descending or left circumflex) of the monkeys were catheterized and agents injected as described above in Example 1.
Statistical analysis was carried out by Student's t-test (non-paired) or Chi-square, with the p<0.05 level accepted as significant.
All monkeys were treated with estradiol 17β via sylastic implants for the entire treatment period. P or MPA was added during the last 2 weeks as a second sylastic implant, to simulate the luteal phase (P) or hormone replacement therapy (MPA). All steroid implants were left in place, including during angiography. Steroid measurements were made by RIA on serum samples taken just before angiography. Indicates significant differences between P and MPA at p 0.05 (N=6 for each group).

[2] = Progesterone serum levels after topical ProGest cream in menopausal or postmenopausal women; format: in vivo, human; details: topical ProGest cream 2 ml, per patient
Protocol: An open label, controlled study was carried out in six healthy menopausal or postmenopausal women using no over-the-counter or prescription medications, medical foods or dietary supplements which would influence progesterone levels. Menopausal or postmenopausal status was determined by clinical methods. The inclusion criteria were low estrogen levels (less than or equal to 25 picograms per ml); non-use of progesterone for two weeks prior to the beginning of the study, and four weeks if medroxyprogesterone acetate was used; a body mass index less than 30; age between 40 and 65; non-smoker; at least six months after menopause (last bleeding); normal mammogram and pap smear within the past year; and reasonable reliability and client compliance. […] The cream was to be applied in 2 ml amounts on calendar days 2-15 at 8 a.m. Applications were increased to a second 2 ml application at 8 p.m. on calendar days 16-30. In addition, estrogen was applied as a […] patch. The patch used was Vivelle®, Ciba (now Novartis), Summit, N.J. The Vivelle® patch (0.05 mg/day) was applied on calendar days 0, 3, 7, 10, 14, 17, 21, 24 and 28.
Estrogen and progesterone serum levels were determined by chemiluminescence and were conducted on calendar days 2, 9, 16, 23, and 30 at times indicated.

[3] = minimum, 5-20 minutes after IC S + U

CC(=O)[C@H]1CC[C@H]2[C@@H]3CCC4=CC(=O)CC[C@]4(C)[C@H]3CC[C@]12C [P, progesterone]
local concentration of progesterone in the endometrial tissue [1]: ~7 nanograms/ml | diameter in dilator response to low dose ACh (coronary arteries; 0.18 μg ACh IC): 1.20±0.25 mm | Vasospasms (incidence) (coronary arteries; S+U IC challenges, E2 implant plus P or MPA implant, N=6 per group): 0 of 6 and 0/6 | reduction of minimum (φ) from controls after S+U (coronary arteries; S+U stimulation): 67% | Control DBP in mm Hg (coronary arteries; before S + U): 60 ± 5 mm Hg | Control Heart rate in bpm (coronary arteries; before S + U): 130 ± 24 bpm | S + U (φ) minimum (coronary arteries; minimum diameter 3 to 5 minutes after IC S + U): 0.37±0.02 mm | S + U stim DBP in min Hg (coronary arteries; [3]): 30 ± 12 min Hg | S + U stim SBP in mm Hg (coronary arteries; [3]): 51 ± 18 mm Hg | S + U stim heart rate in bpm (coronary arteries; [3]): 66 ± 34 bpm | Control (φ) in mm (coronary arteries; proximal LAD or left circumflex diameter under control conditions, E2+P or E2+MPA group): 1.14±0.21 mm | Progesterone Levels ([2]; Week 0, 1/2 H): 1.6 Nanograms/ml | Progesterone Levels ([2]; Week 0, 1 H): 3.1 Nanograms/ml | Progesterone Levels ([2]; Week 0, 2 H): 2.8 Nanograms/ml | Progesterone Levels ([2]; Week 0, 3 H): 3.5 Nanograms/ml | Progesterone Levels ([2]; Week 0, 4 H): 3.3 Nanograms/ml | Progesterone Levels ([2]; Week 0, 6 H): 4.6 Nanograms/ml | Progesterone Levels ([2]; Week 0, 12 H): 2.4 Nanograms/ml | Progesterone Levels ([2]; Week 1, 0 H): 0.43 Nanograms/ml (2×) and 0.4 Nanograms/ml and 1.5 Nanograms/ml and 1.6 Nanograms/ml and 1.9 Nanograms/ml | Progesterone Levels ([2]; Week 1, 1 H (first of two columns headed 1 H), listed as Progesterone): 1.0 Nanograms/ml and 1.5 Nanograms/ml and 1.3 Nanograms/ml and 1.6 Nanograms/ml and 2.0 Nanograms/ml | Progesterone Levels ([2]; Week 1, 1 H (second of two columns headed 1 H), listed as Progesterone): 0.84 Nanograms/ml and 1.0 Nanograms/ml and 1.4 Nanograms/ml and 1.1 Nanograms/ml and 1.3 Nanograms/ml and 2.7 Nanograms/ml | Progesterone Levels ([2]; Week 1, 2 H): 0.49 Nanograms/ml and 0.82 Nanograms/ml and 0.57 Nanograms/ml and 1.0 Nanograms/ml and 1.2 Nanograms/ml and 1.4 Nanograms/ml | Progesterone Levels ([2]; Week 1, 3 H): 0.91 Nanograms/ml and 0.94 Nanograms/ml and 1.2 Nanograms/ml and 1.7 Nanograms/ml and 1.6 Nanograms/ml | Progesterone Levels ([2]; Week 1, 4 H): 0.96 Nanograms/ml and 1.0 Nanograms/ml and 1.1 Nanograms/ml (2×) and 1.3 Nanograms/ml and 2.3 Nanograms/ml | Progesterone Levels ([2]; Week 1, 6 H): 0.98 Nanograms/ml and 1.3 Nanograms/ml (2×) and 2.0 Nanograms/ml and 1.6 Nanograms/ml (2×) | Progesterone Levels ([2]; Week 1, 12 H): 0.87 Nanograms/ml and 0.96 Nanograms/ml and 1.3 Nanograms/ml and 1.6 Nanograms/ml and 1.8 Nanograms/ml and 2.0 Nanograms/ml | Progesterone Levels ([2]; Week 2, 0 H): 0.93 Nanograms/ml and 1.2 Nanograms/ml and 0.96 Nanograms/ml and 2 Nanograms/ml and 1.7 Nanograms/ml and 3.3 Nanograms/ml | Progesterone Levels ([2]; Week 2, 1 H, listed as Progesterone): 0.82 Nanograms/ml and 0.94 Nanograms/ml and 1.2 Nanograms/ml and 1.3 Nanograms/ml and 14.1 Nanograms/ml and 2.4 Nanograms/ml | Progesterone Levels ([2]; Week 2, 1 H, listed as progesterone): 14.1 Nanograms/ml | Progesterone Levels ([2]; Week 2, 2 H): 1 Nanograms/ml and 0.81 Nanograms/ml and 1.2 Nanograms/ml and 1.7 Nanograms/ml and 3.3 Nanograms/ml and 2.9 Nanograms/ml | Progesterone Levels ([2]; Week 2, 4 H): 1.1 Nanograms/ml and 1.5 Nanograms/ml and 1.2 Nanograms/ml and 2.4 Nanograms/ml and 5 Nanograms/ml and 1.8 Nanograms/ml | Progesterone Levels ([2]; Week 2, 6 H): 1 Nanograms/ml and 1.3 Nanograms/ml and 1.2 Nanograms/ml and 1.5 Nanograms/ml and 3.2 Nanograms/ml and 2.9 Nanograms/ml | Progesterone Levels ([2]; Week 2, 8 H): 0.94 Nanograms/ml and 0.83 Nanograms/ml and 1.2 Nanograms/ml and 1.1 Nanograms/ml and 3 Nanograms/ml and 2.2 Nanograms/ml | Progesterone Levels ([2]; Week 2, 12 H): 0.84 Nanograms/ml and 0.94 Nanograms/ml and 1.2 Nanograms/ml and 2.8 Nanograms/ml and 3.1 Nanograms/ml | Progesterone Levels ([2]; Week 2, 24 H): 0.81 Nanograms/ml and 2 Nanograms/ml and 1.1 Nanograms/ml and 0.98 Nanograms/ml and 2.1 Nanograms/ml | concentration at 1 h ([2]; female, human, topical, Week 1, 1 H): 1 ng/mL | concentration ([2]; female, human, topical, Week 1, 3 H): 1 ng/mL
